What was measured:
Assay in all cases: combination Emax (second highest fraction inhibited in the dose matrix, 72 h); higher = more inhibition; extreme values may be limits of the assay
[1] = system: BC-1 (B-Cell Non-Hodgkin's Lymphoma)
Summary of the method: (§1)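 Cell lines in DMEM/F12 or RPMI with 10% FBS were plated in 1536-well plates, held 24 hours at 37°C, 5% CO2, then given two-drug dose matrices for 72 hours (DMSO typically 0.2%). Viability was read by CellTiter-Glo 2.0 luminescence and scaled as inhibition from 0 (vehicle wells) to 1 (blank wells). Combination Emax is the second-highest inhibition in the matrix; Bliss excess is observed combination effect minus expected EA + EB − EA·EB, EA and EB being single-agent effects.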

[2] = system: C2BBe1 (Colorectal Carcinoma)
Summary of the method: as §1

C32 (Melanoma) = system: C32 (Melanoma)
Summary of the method: as §1

DK-MG (Glioblastoma) = system: DK-MG (Glioblastoma)
Summary of the method: as §1

GCIY (Gastric Carcinoma) = system: GCIY (Gastric Carcinoma)
Summary of the method: as §1

HT-144 (Melanoma) = system: HT-144 (Melanoma)
Summary of the method: as §1

[3] = system: HT-3 (Cervical Carcinoma)
Summary of the method: as §1

[4] = system: MDA-MB-175-VII (Breast Carcinoma)
Summary of the method: as §1

[5] = system: NCI-H1048 (Small Cell Lung Carcinoma)
Summary of the method: as §1

[6] = system: NCI-H1435 (Non-Small Cell Lung Carcinoma)
Summary of the method: as §1

[7] = system: NCI-H1975 (Lung Adenocarcinoma)
Summary of the method: as §1

[8] = system: NCI-H835 (Other Solid Carcinomas)
Summary of the method: as §1

[9] = system: NTERA-2-cl-D1 (Other Solid Carcinomas)
Summary of the method: as §1

[10] = system: OVKATE (Ovarian Carcinoma)
Summary of the method: as §1

[11] = system: SBC-5 (Small Cell Lung Carcinoma)
Summary of the method: as §1

[12] = system: SCC90 (Head and Neck Carcinoma)
Summary of the method: as §1

SK-MEL-24 (Melanoma) = system: SK-MEL-24 (Melanoma)
Summary of the method: as §1

SK-N-DZ (Neuroblastoma) = system: SK-N-DZ (Neuroblastoma)
Summary of the method: as §1

[13] = system: SW1463 (Colorectal Carcinoma)
Summary of the method: as §1

[14] = system: TK (B-Cell Non-Hodgkin's Lymphoma)
Summary of the method: as §1

SMILES | combination Emax [1] | combination Emax [2] | combination Emax (C32 (Melanoma)) | combination Emax (DK-MG (Glioblastoma)) | combination Emax (GCIY (Gastric Carcinoma)) | combination Emax (HT-144 (Melanoma)) | combination Emax [3] | combination Emax [4] | combination Emax [5] | combination Emax [6] | combination Emax [7] | combination Emax [8] | combination Emax [9] | combination Emax [10] | combination Emax [11] | combination Emax [12] | combination Emax (SK-MEL-24 (Melanoma)) | combination Emax (SK-N-DZ (Neuroblastoma)) | combination Emax [13] | combination Emax [14]
CN(C)CCCOc1ccc(-c2ccc3ncc4c(c3c2)n(C2CCOCC2)c(=O)n4C)cn1 [AZD0156] + O=C(c1cc(Cc2n[nH]c(=O)c3ccccc23)ccc1F)N1CCN(C(=O)C2CC2)CC1 [Olaparib] (first compound max 3 µM, partner max 3 µM) | 0.566 | 0.285 | 0.164 | 0.41 | 0.418 | 0.381 | 0.321 | 0.198 | 0.352 | 0.161 | 0.39 | 0.224 | 0.162 | 0.214 | 0.194 | 0.138 | 0.227 | 0.373 | 0.169 | 0.18
COc1nnc2ccc(N3CCC(c4ccc(OCCN5CCN(C)C(=O)[C@H]5C)cc4)CC3)nn12 [AZD5153] + C=CCn1c(=O)c2cnc(Nc3ccc(N4CCN(C)CC4)cc3)nc2n1-c1cccc(C(C)(C)O)n1 [AZD1775] (first compound max 1 µM, partner max 1 µM) | 0.979 | 0.547 | 0.354 | 0.689 | 0.605 | 0.651 | 0.553 | 0.432 | 0.787 | 0.24 | 0.728 | 0.582 | 0.672 | 0.344 | 0.846 | 0.714 | 0.604 | 0.987 | 0.478 | 0.97
COc1nnc2ccc(N3CCC(c4ccc(OCCN5CCN(C)C(=O)[C@H]5C)cc4)CC3)nn12 [AZD5153] + CC1(C)CCC(CN2CCN(c3ccc(C(=O)NS(=O)(=O)c4ccc(NCC5CCOCC5)c([N+](=O)[O-])c4)c(Oc4cnc5[nH]ccc5c4)c3)CC2)=C(c2ccc(Cl)cc2)C1 [Venetoclax] (first compound max 1 µM, 7x7, partner max 1 µM) | 0.935 | 0.378 | 0.261 | 0.539 | 0.505 | 0.417 | 0.278 | 0.475 | 0.492 | 0.169 | 0.667 | 0.372 | 0.654 | 0.35 | 0.518 | 0.533 | 0.474 | 0.694 | 0.581 | 0.994
COc1nnc2ccc(N3CCC(c4ccc(OCCN5CCN(C)C(=O)[C@H]5C)cc4)CC3)nn12 [AZD5153] + CCN(CCO)CCCOc1ccc2c(Nc3cc(CC(=O)Nc4cccc(F)c4)[nH]n3)ncnc2c1 [AZD2811] (first compound max 1 µM, 7x7, partner max 1 µM) | 0.943 | 0.558 | 0.38 | 0.614 | 0.63 | 0.48 | 0.332 | 0.509 | 0.514 | 0.339 | 0.781 | 0.384 | 0.68 | 0.263 | 0.718 | 0.452 | 0.528 | 0.8 | 0.563 | 0.371
COc1nnc2ccc(N3CCC(c4ccc(OCCN5CCN(C)C(=O)[C@H]5C)cc4)CC3)nn12 [AZD5153] + C[C@@H]1COCCN1C2=NC(=NC(=C2)C3(CC3)[S@](=N)(=O)C)C4=C5C=CNC5=NC=C4 [AZD6738] (first compound max 1 µM, 7x7, partner max 10 µM) | 0.989 | 0.579 | 0.606 | 0.624 | 0.794 | 0.713 | 0.601 | 0.529 | 0.678 | 0.3 | 0.737 | 0.727 | 0.832 | 0.324 | 0.83 | 0.416 | 0.636 | 0.979 | 0.555 | 0.968
COc1nnc2ccc(N3CCC(c4ccc(OCCN5CCN(C)C(=O)[C@H]5C)cc4)CC3)nn12 [AZD5153] + Cc1c2c(nn1C)CSCc1cc(n(C)n1)CSc1cc(c3ccccc3c1)OCCCc1c(C(=O)O)n(C)c3c-2c(Cl)ccc13 [AZD5991] (first compound max 1 µM, 7x7, partner max 1 µM) | 1 | 0.452 | 0.947 | 0.633 | 0.538 | 0.978 | 0.911 | 0.553 | 0.627 | 0.296 | 0.724 | 0.599 | 0.97 | 0.333 | 0.988 | 0.9 | 0.772 | 0.751 | 0.581 | 0.677
COc1nnc2ccc(N3CCC(c4ccc(OCCN5CCN(C)C(=O)[C@H]5C)cc4)CC3)nn12 [AZD5153] + Cn1cnc2c(F)c(Nc3ccc(Br)cc3Cl)c(C(=O)NOCCO)cc21 [Selumetinib] (first compound max 1 µM, 7x7, partner max 10 µM) | 0.945 | 0.701 | 1 | 0.652 | 0.598 | 0.864 | 0.399 | 0.493 | 0.449 | 0.233 | 0.72 | 0.446 | 0.712 | 0.26 | 0.662 | 0.916 | 0.857 | 0.703 | 0.732 | 0.232
NC1(C(=O)N[C@@H](CCO)c2ccc(Cl)cc2)CCN(c2ncnc3[nH]ccc23)CC1 [Capivasertib] + CC(=O)c1c(C)c2cnc(Nc3ccc(N4CCNCC4)cn3)nc2n(C2CCCC2)c1=O [Palbociclib] (first compound max 10 µM, 7x7, partner max 10 µM) | 0.928 | 0.314 | 0.413 | 0.523 | 0.631 | 0.809 | 0.2 | 0.556 | 0.503 | 0.244 | 0.638 | 0.426 | 0.294 | 0.265 | 0.353 | 0.965 | 0.654 | 0.618 | 0.502 | 0.0563
NC1(C(=O)N[C@@H](CCO)c2ccc(Cl)cc2)CCN(c2ncnc3[nH]ccc23)CC1 [Capivasertib] + CC(C)n1c(=O)n(C)c2cnc3cc(F)c(-c4ccc(OCCCN5CCCCC5)nc4)cc3c21 [AZD1390] (first compound max 10 µM, 7x7, partner max 0.3 µM) | 0.761 | 0.32 | 0.353 | 0.454 | 0.397 | 0.606 | 0.11 | 0.635 | 0.439 | 0.198 | 0.604 | 0.403 | 0.312 | 0.247 | 0.281 | 0.825 | 0.541 | 0.218 | 0.237 | 0.162
CS(=O)(=O)CCNCc1ccc(-c2ccc3ncnc(Nc4ccc(OCc5cccc(F)c5)c(Cl)c4)c3c2)o1 [Lapatinib] + NC1(c2ccc(-c3nc4ccn5c(=O)[nH]nc5c4cc3-c3ccccc3)cc2)CCC1 [MK-2206] (first compound max 10 µM, 7x7, partner max 10 µM) | 0.957 |  | 0.635 |  | 0.934 |  |  | 1 |  | 0.665 |  | 0.868 | 0.911 | 0.537 | 0.853 | 0.962 | 0.949 |  | 0.868 | 
CCc1c2c(nc3ccc(O)cc13)-c1cc3c(c(=O)n1C2)COC(=O)[C@]3(O)CC [SN-38] + O=C(c1cc(Cc2n[nH]c(=O)c3ccccc23)ccc1F)N1CCN(C(=O)C2CC2)CC1 [Olaparib] (first compound max 0.3 µM, 7x7, partner max 10 µM) | 1 |  | 0.664 | 0.259 | 0.779 |  | 0.979 | 0.649 | 0.987 | 0.326 | 0.545 | 0.268 | 1 | 0.224 |  | 0.632 | 0.775 |  | 0.473 | 
Cc1nc(-c2cn3c(n2)-c2ccc(-c4cnn(C(C)(C)C(N)=O)c4)cc2OCC3)n(C(C)C)n1 [Taselisib] + O=C(Nc1ccc2[nH]nc(-c3ccncc3)c2c1)[C@@H]1CCN(CC(=O)N2CCN(c3ccc(-c4ncccn4)cc3)CC2)C1 [SCH772984] (first compound max 10 µM, 7x7, partner max 5 µM) | 0.652 |  | 1 |  | 0.888 |  |  | 1 |  | 0.791 |  | 0.71 | 0.64 | 0.423 |  |  | 0.93 |  | 0.798 | 
CC1(C)CCC(CN2CCN(c3ccc(C(=O)NS(=O)(=O)c4ccc(NCC5CCOCC5)c([N+](=O)[O-])c4)c(Oc4cnc5[nH]ccc5c4)c3)CC2)=C(c2ccc(Cl)cc2)C1 [Venetoclax] + CS(=O)(=O)CCNCc1ccc(-c2ccc3ncnc(Nc4ccc(OCc5cccc(F)c5)c(Cl)c4)c3c2)o1 [Lapatinib] (first compound max 1 µM, 7x7, partner max 10 µM) | 0.904 |  | 0.209 |  | 0.276 |  |  | 0.937 |  | 0.195 |  | 0.294 | 0.2 | 0.182 |  |  | 0.683 |  | 0.4 | 

Reference: the supplement of paper PMC11061612
